Data taken from patent publication US11976083B2, “Inhibitors of peptidylarginine deiminases” (Gilead Sciences, Inc., priority 2020, dated 2024).
pIC50: −log10 of the molar value.

Target: T1, human PAD4 (Homo sapiens, UniProt Q9UM07)
T1 construct: human PAD4 (NM_012387), A2-P663, was PCR amplified; His-SUMO (N, cleaved yes); made in house; host or cells: E. coli BL21(DE3)
Test: In vitro PAD4 BAEE biochemical assay
Conditions: BAEE substrate 3 mM, 5 nM PAD4, 2 mM calcium chloride; geometric mean of multiple experiments
Description: In Vitro PAD4 BAEE Biochemical Assay
The enzymatic activity of human PAD4 was monitored in a biochemical assay in the presence or absence of compounds using the small peptidyl arginine mimic BAEE (Na-Benzoyl-L-arginine ethyl ester hydrochloride) as substrate. PAD4 activity led to deimination of BAEE and release of ammonia. Levels of ammonia were monitored by using an amine coupling reaction and were indicative of PAD4 enzymatic activity.
One hundred nanoliters of test compounds dissolved in DMSO at various concentrations were dispensed into a 384-well black OptiPlate using a Labcyte Echo instrument. Ten microliters of a solution of recombinant PAD4 and calcium chloride diluted in PAD4 assay buffer (50 mM MOPS [3-(N-morpholino) propanesulfonic acid], pH 7.6; 50 mM sodium chloride; 0.05% Tween-20; 2 mM dithiothreitol) was added to the compound-containing plate and was incubated for 30 minutes at 25° C. Ten microliters of a solution of BAEE (Sigma-Aldrich #B4500) diluted in PAD4 assay buffer was then added to start the reaction. Final concentrations were 5 nM PAD4, 2 mM calcium chloride, and 3 mM BAEE. The reaction mixture was incubated at 25° C. for 2 hours and was stopped with the addition of 10 microliters of a solution of 75 mM EDTA (Ethylenediaminetetraacetic acid) in PAD4 assay buffer. Thirty microliters of detection solution (5 mM o-phthalaldehyde, 50 mM MOPS [3-(N-morpholino) propanesulfonic acid], pH 7.6; 50 mM sodium chloride; 0.05% Tween-20; 5 mM dithiothreitol) was then added and the reaction was incubated for 1 hour at 25° C. The level of fluorescent thiol-substituted isoindole resulting from the reaction of ammonia, o-phthalaldehyde, and dithiothreitol was measured on an Envision plate reader (PerkinElmer) with 405 nm excitation and 535 nm emission.
Data were normalized based on maximum inhibition (50 micromolar of the covalent PAD inhibitor BB-Cl-Amidine (Bicker, K. L.; Anguish, L.; Chumanevich, A. A.; Cameron, M. D.; Cui, X.; Witalison, E.; Subramanian, V.; Zhang, X.; Chumanevich, A. P.; Hofseth, L. J.; Coonrod, S. A.; Thompson, P. R. ACS Med. Chem. Lett. 2012, 3, 1081-1085). and no inhibition (DMSO) controls. Least squares curve fittings were performed using a four-parameter variable slope nonlinear regression model. IC50 is defined as the concentration of compound required to inhibit 50% of maximum activity. IC50 values from multiple experiments were averaged by geometric mean and the standard deviation was calculated.

T1 sequence (Q9UM07 2-663): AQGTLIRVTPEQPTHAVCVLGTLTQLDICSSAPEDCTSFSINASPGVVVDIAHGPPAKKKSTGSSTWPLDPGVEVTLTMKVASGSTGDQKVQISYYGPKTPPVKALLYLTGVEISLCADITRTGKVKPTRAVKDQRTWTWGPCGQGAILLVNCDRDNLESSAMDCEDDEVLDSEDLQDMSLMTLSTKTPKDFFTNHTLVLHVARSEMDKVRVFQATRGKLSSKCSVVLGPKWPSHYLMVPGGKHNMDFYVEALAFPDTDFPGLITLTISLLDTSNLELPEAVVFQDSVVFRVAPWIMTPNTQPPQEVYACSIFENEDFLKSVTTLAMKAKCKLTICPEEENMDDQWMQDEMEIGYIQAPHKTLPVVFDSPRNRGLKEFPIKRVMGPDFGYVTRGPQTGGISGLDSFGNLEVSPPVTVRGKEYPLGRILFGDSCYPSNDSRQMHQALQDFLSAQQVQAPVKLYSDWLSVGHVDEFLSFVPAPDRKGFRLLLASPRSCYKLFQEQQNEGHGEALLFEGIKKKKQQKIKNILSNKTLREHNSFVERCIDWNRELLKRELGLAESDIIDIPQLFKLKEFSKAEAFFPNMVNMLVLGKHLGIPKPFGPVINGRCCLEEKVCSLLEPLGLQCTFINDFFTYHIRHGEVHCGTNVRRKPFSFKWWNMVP

Row | pIC50 | Compound
1 | 7.09 | COc1cc(C(=O)N2C[C@H](N)[C@@H]3CC[C@H]2C3)cc2nc(-c3cc4ccc5nc4n3CCCC[C@]3(F)C[C@H]3C(=O)N3CCC[C@H]53)n(C)c12 [Example 955, (2~{R},8~{S},10~{S})-16-[5-[(1~{S},4~{R},5~{R})-4-amino-2-azabicyclo[3.2.1]octane-2-carbonyl]-7-methoxy-1-methyl-benzimidazol-2-yl]-10-fluoro-6,15,21-triazapentacyclo [13.5.2.0^{2,6}.0^{8,10}.0^ {18,22}]docosa-1(21),16, 18(22),19-tetraen-7-one]
2 | 6.64 | COc1cc(C(=O)N2CC[C@@H](OC)[C@@H](N)C2)cc2nc(-c3cc4ccc5nc4n3CCCCC[C@H]3C[C@]3(C)C(=O)N[C@@H]5C)n(C)c12 [Example 175]
3 | 6.81 | COc1cc(C(=O)N2C[C@H](N)[C@@H]3CC[C@H]2C3)cc2nc(-c3cc4ccc5nc4n3CCCCCc3c(ccc(Cl)c3F)C(=O)N[C@@H]5C)n(C)c12 [Example 898, (2~{R})-17-[5-[(1~{S},4~{R},5~ {R})-4-amino-2-azabicyclo [3.2.1]octane-2-carbonyl]-7-methoxy-1-methyl-benzimidazol-2-yl]-8-chloro-9-fluoro-2-methyl-3,16,22-triazatetracyclo[14.5.2.0^ {5,10}.0^{19,23}]tricosa-1(22),5(10),6,8,17,19(23),20-heptaen-4-one]
4 | 6.69 | COc1cc(C(=O)N[C@H]2CNCC[C@@H]2F)cc2nc(-c3cc4ccc5nc4n3CCCCC[C@@H]3C[C@@H]3C(=O)N[C@@H]5C)n(C)c12 [Example 523, ~{N}-[(3~{S},4~ {S})-4-fluoro-3-piperidyl]-7-methoxy-1-methyl-2-[(2~{R},5~ {S},7~{R})-2-methyl-4-oxo-3,13,19-triazatetracyclo [11.5.2.0^{5,7}.0^{16,20}]icosa-1(19),14,16(20), 17-tetraen-14-yl] benzimidazole-5-carboxamide]
5 | 7.28 | COc1cc(C(=O)N2CC[C@@H](OC)[C@@H](N)C2)cc2nc(-c3cc4ccc5nc4n3CCCCCc3ccncc3C(=O)N[C@@H]5C)n(C)c12 [Example 649, (2~{R})-17-[5-[(3~{S), 4~{R})-3-amino-4-methoxy-piperidine-1-carbonyl]-7-methoxy-1-methyl-benzimidazol-2-yl]-2-methyl-3,7,16,22-tetrazatetracyclo[14.5.2.0^ {5,10}.0^{19,23}] tricosa-1(22),5,7,9,17,19(23), 20-heptaen-4-one]
6 | 6.51 | COc1cc(C(=O)N[C@@H]2CC[C@H](C)NC2)cc2nc(-c3cc4ccc5nc4n3CCCCCCC3(CC3)C(=O)N[C@@H]5C)n(C)c12 [Example 72, 7-methoxy-1-methyl-2-[(11~{R})-11-methyl-9-oxo-spiro[1,10,19-triazatricyclo[10.5.2.0^{15,18}]nonadeca-12(19),13,15(18),16-tetraene-8,1′-cyclopropane]-17-yl]-~{N}-[(3~{R},6~{S})-6-methyl-3-piperidyl]benzimidazole-5-carboxamide]
7 | 7.24 | COc1cc(C(=O)N2[C@H]3CC[C@@H]2[C@H](N)C3)cc2nc(-c3cc4ccc5cc4n3CCCCCCNC(=O)c3ccccc3-5)n(C)c12 [Example 97, 17-[5-[(1~{R},2~{R},4~{S})-2-amino-7-azabicyclo[2.2.1]heptane-7-carbonyl]-7-methoxy-1-methyl-benzimidazol-2-yl]-9,16-diazatetracyclo[14.5.2.0^{2,7}.0^{19,23}] tricosa-1(22),2,4,6,17,19(23),20-heptaen-8-one]
8 | 6.39 | COc1cc(C(=O)N2[C@H]3CC[C@@H]2[C@H](N)C3)cc2nc(-c3cc4ccc5nc4n3CCCCCCCOc3ncccc3-5)n(C)c12 [Example 85, [(1˜{R},2˜{R},4˜{S})-2-amino-7-azabicyclo[2.2.1]heptan-7-yl]-[7-methoxy-1-methyl-2-(8-oxa-6,16,22-triazatetracyclo[14.5.2.0^{2,7}.0^{19,23}]tricosa-1(22),2,4,6,17,19(23),20-heptaen-17-yl)benzimidazol-5-yl]methanone]
9 | 6.95 | C[C@@H]1[C@H](N)CCCN1C(=O)c1ccc2c(nc(-c3cc4ccc5nc4n3CC/C=C/C[C@@H]3C[C@H]3C(=O)N[C@@H]5C)n2C2CC2)c1F [Example 753, (2~{R},5~{R},7~{R},9~{E})-14-[5-[(2~{R},3~{R})-3-amino-2-methyl-piperidine-1-carbonyl]-1-cyclopropyl-4-fluoro-benzimidazol-2-yl]-2-methyl-3,13,19-triazatetracyclo [11.5.2.0^{5,7}.0^{16,20}] icosa-1(19),9,14,16(20), 17-pentaen-4-one]
10 | 7.74 | COc1cc(C(=O)N2[C@H]3CC[C@@H]2[C@H](N)C3)cc2nc(-c3cc4ccc5nc4n3CCCCCOCC(=O)N[C@@H]5C)c(C)n12 [Example 247, (11~{R})-17-[7-[(1~{R},2~{R},4~{S})-2-amino-7-azabicyclo[2.2.1]heptane-7-carbonyl]-5-methoxy-3-methyl-imidazo[1,2-a]pyridin-2-yl]-11-methyl-7-oxa-1,10,19-triazatricyclo[10.5.2.0^{15,18}]nonadeca-12(19),13,15(18),16-tetraen-9-one]
11 | 6.14 | COc1cc(C(=O)N2CC[C@@H](OC)[C@@H](N)C2)cc2nc(-c3cc4ccc5nc4n3CCCCC[C@H]3C[C@]3(F)C(=O)N[C@@H]5C)n(C)c12 [Example 688, (2~{R},5~{R},7~{S})-14-[5-[(3~{S},4~{R})-3-amino-4-methoxy-piperidine-1-carbonyl]-7-methoxy-1-methyl-benzimidazol-2-yl]-5-fluoro-2-methyl-3,13,19-triazatetracyclo[11.5.2.0^ {5,7}.0^{16,20}]icosa-1(19), 14,16(20),17-tetraen-4-one]
12 | 4.74 | COc1cc(C(=O)N[C@H]2CNC[C@H]2F)cc2nc(-c3cc4ccc5nc4n3CCCCCCC(C)(C)C(=O)N[C@@H]5C)n(C)c12 [Example 199, ~{N}-[(3~{S),4~{R})-4-fluoropyrrolidin-3-yl]-7-methoxy-1-methyl-2-[(11~{R})-8,8,11-trimethyl-9-oxo-1,10,19-triazatricyclo[10.5.2.0^{15,18}]nonadeca-12(19),13,15(18),16-tetraen-17-yl]benzimidazole-5-carboxamide]
13 | 7.74 | C[C@H]1NC(=O)c2ccc(Cl)nc2CC[C@H]2C[C@H]2Cn2c(-c3nc4cc(C(=O)N5C[C@H](N)[C@@H]6CC[C@H]5C6)cc(F)c4n3C3CC3)cc3ccc1nc32 [Example 710, (3~{R),5~{S},16~{R})-22-[5-[(1~{S},4~{R},5~{R})-4-amino-2-azabicyclo[3.2.1]octane-2-carbonyl]-1-cyclopropyl-7-fluoro-benzimidazol-2-yl]-10-chloro-16-methyl-1,9,15,24-tetrazapentacyclo[15.5.2.0^ {3,5}.0^{8,13}.0^{20,23}] tetracosa-8(13),9,11,17(24), 18,20(23),21-heptaen-14-one]
14 | 5.89 | COc1cc(C(=O)N[C@H]2CNC[C@H](C)C2)cc2nc(-c3cc4ccc5nc4n3CCCCCCC(C)(C)C(=O)N[C@@H]5C)n(C)c12 [Example 67, 7-methoxy-1-methyl-~{N}-[(3~{R},5~{R})-5-methyl-3-piperidyl]-2-[(11~{R})-8,8,11-trimethyl-9-oxo-1,10,19-triazatricyclo[10.5.2.0^{15,18}]nonadeca-12(19),13,15(18),16-tetraen-17-yl]benzimidazole-5-carboxamide]
15 | 7.12 | COc1cc(C(=O)N2CC[C@@H](OC)[C@@H](N)C2)cc2nc(-c3cc4ccc5nc4n3CCCCCc3nccc(Cl)c3C(=O)N[C@@H]5C)n(C)c12 [Example 831, (2~{R})-17-[5-[(3~{S}, 4~{R})-3-amino-4-methoxy-piperidine-1-carbonyl]-7-methoxy-1-methyl-benzimidazol-2-yl]-6-chloro-2-methyl-3,9,16,22-tetrazatetracyclo [14.5.2.0^{5,10}.0^{19,23}] tricosa-1(22),5(10),6,8, 17,19(23),20-heptaen-4-one]
16 | 7.15 | COc1cc(C(=O)N[C@H]2CNCC[C@@H]2F)cc2nc(-c3cc4ccc5nc4n3CCCOC[C@@H]3C[C@H]3C(=O)N[C@@H]5C)n(C)c12 [Example 616, ~{N}-[(3~{S},4~{S})-4-fluoro-3-piperidyl]-7-methoxy-1-methyl-2-[(2~{R},5~{R},7~{R})-2-methyl-4-oxo-9-oxa-3,13,19-triazatetracyclo[11.5.2.0^ {5,7}.0^{16,20}]icosa-1(19),14,16(20), 17-tetraen-14-yl] benzimidazole-5-carboxamide]
